# Experimental data taken from patent US20260226037A1, “MICROTUBULE TARGETING AGENTS” (ARIEL SCIENTIFIC INNOVATIONS LTD., priority 2022, published 2026).
# pIC50: −log10 of the molar value.
# Columns and labels:
# myeloma cell lines = test: XTT cytotoxicity, 10 different myeloma cell lines; assay type: cell-based; settings: range over 10 different myeloma cell lines
# Method: (§1) The cytotoxic activity of the novel family was evaluated against various tumor cells, including myeloma cells, acute lymphoblastic leukemia cells, acute monocytic leukemia cells, chronic myelogenous leukemia cells, pancreatic cancer cells, breast cancer cells, uterine sarcoma cells, cervix adenocarcinoma cells, ovary cancer cells, melanoma cells, osteosarcoma cells, prostate cancer cells, lung cancer cells, neuroblastoma cells and colorectal adenocarcinoma cells by XTT assay.
# When this family of compounds were tested on different cell lines from the same type of tumor with different phenotypes there were no significant differences in cytotoxic sensitivity.
# [1] = system: metastatic breast adenocarcinoma cells; test: XTT cytotoxicity, metastatic breast adenocarcinoma cells; assay type: cell-based; settings: highest of the range
# Method: as §1
# [2] = system: colchicine binding site on tubulin protein; test: EBI competition assay, NALM6 cells; assay type: cell-based
# MCF7-VP cells = test: XTT cytotoxicity, MCF7-VP; assay type: cell-based
# In short: (§2)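 Cytotoxicity was measured by XTT assay in a panel of human tumor cell lines spanning haematological and solid cancers.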
# purified tubulin = test: Tubulin polymerization, cell-free assay; assay type: biochemical; settings: tubulin 2.00 mg/mL; 1, 15 and 30 μM; 37° C., 100 min; vs vehicle
# Method: The effect of the compounds on their ability to inhibit tubulin polymerization, was tested against a vehicle control by evaluating polymerization of purified tubulin in a cell-free assay where tubulin (2.00 mg/mL) was exposed to vehicle control or 1, 15 and 30 μM of the compounds (n=2). Polymerizations were tracked by an increase in fluorescence excitation wavelength is 340-360 nm and emission wavelength at 410-460 nm. Fluorescence was monitored at 37° C. every 30 sec for 100 min.
# [3] = Xenograft murine myeloma model, body weight and toxicity signs; assay type: in vivo; settings: intraperitoneally, during the experiment
# Method: In vivo anti-cancer efficacy of the molecules was evaluated in a xenograft murine myeloma model. Male SCID mice (6-8 weeks old) were maintained in accordance with Institutional Animal Care Use Committee guidelines. Mice were housed in the Animal Research Facility of Ariel University and experiments were performed in accordance with approved protocols. During the experiment, RPMI8226 myeloma cells in exponential growth were harvested from culture, washed three times with sterile PBS, counted and resuspended in sterile PBS (1.5×10^7cells mouse/0.1 ml PBS) and subcutaneously injected on the right flank of male C.B-17/IcrHsd-Prkdc-scid, […] mice. After two weeks of cells injection, when tumors reached a size between 30-60 mm3, mice were assigned into different groups (n=3-5) and started receiving treatment. Body weights were determined twice weekly along with tumor volume {V=[length×(width)2]/2}measurements using electronical caliper. Mice were sacrificed when mean tumor volume of vehicle treated group reached 1500 mm3, or mice appeared moribund to prevent unnecessary morbidity.
# The weight of the tumors was measured at the end of the experiment and expressed as mean tumor weight per group. Body weight is expressed as mean body mice weight per group.
# MES-SA cells = test: XTT cytotoxicity, MES-SA; assay type: cell-based; settings: Homo sapiens, poorly differentiated uterine sarcoma, non-resistant
# In short: as §2
# HUVEC cells = test: HUVEC tube formation on Matrigel; assay type: cell-based, human
# Method: Endothelial cells seeded on Matrigel are able to form three-dimensional capillary structures with a lumen resembling the first angiogenesis steps.
# The analysis of anti-angiogenic effect was performed by exposing HUVEC cells to the compounds and seeding them on Matrigel matrix for 4 hours. During this time, control group formed an extensive network lumen-like structure as compared to partially disorganized cells treated with lower doses of SMS077 and SMS182 and disorganized and rounded cells treated with higher doses of the molecules.
# RPMI-MR20 cells = test: XTT cytotoxicity, RPMI-MR20; assay type: cell-based
# In short: as §2
structure (smiles),measurement,setting,value
"CCCCCOC(=O)c1[nH]c2c(c1C)C(=O)CC(c1ncco1)C2 (stereo not shown) [SMS077, pentyl 3-methyl-6-(oxazol-2-yl)-4-oxo-4,5,6,7-tetrahydro-1H-indole-2-carboxylate]",pIC50,myeloma cell lines,7.28 to 7.85
same,pIC50,[1],6.37
same,binding to the colchicine binding site,[2],bound to the colchicine binding site
same,pIC50,"MCF7-VP cells; Homo sapiens, MCF7-VP, breast adenocarcinoma, MRP overexpression",6.25
same,IC50 ratio between resistant and non-resistant cells,MCF7-VP cells; MCF7-VP / MCF7,1.474
same,sensitivity of resistant subline vs parental cells,MCF7-VP cells; MCF7-VP vs MCF7,same sensitivity
same,rate of tubulin polymerization,purified tubulin,inhibited the rate of tubulin polymerization in a concentration-dependent manner
same,body weight and other signs of potential toxicity,[3],No significant changes in body weight or other signs of potential toxicity
same,pIC50,MES-SA cells,6.89
same,inhibition of tubule formation,HUVEC cells; 4 hours,dose dependent inhibition of tubule formation
same,concentration at which tubule formation was significantly inhibited,HUVEC cells; 4 hours of treatment,75 nM
same,pIC50,"RPMI-MR20 cells; RPMI-MR20, mitoxantrone resistant, read-out: IC50",7.64
same,IC50 ratio between resistant and non-resistant cells,RPMI-MR20 cells; RPMI-MR20 / RPMI 8226,0.885
